Results reported in patent US20260053932A1, “COMPOUNDS AND METHODS FOR THE TARGETED DEGRADATION OF ANDROGEN RECEPTOR AND ASSOCIATED METHODS OF USE” (Arvinas Operations, Inc., priority 2020, published 2026).
Read-outs that look alike come from different tables or passages of the source.

Test system: androgen receptor (AR) in LNCaP and/or VCaP cells
Assay: Androgen Receptor ELISA assay (AR degradation)
Type: cell-based
Procedure, shortened: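 VCaP cells grown ≥3 days, then treated 5 h with compound in media containing 1 nM R1881 (10× stock). Cells lysed and AR quantified by sandwich ELISA (mouse AR detection Ab, HRP anti-mouse, TMB). DC50 and Dmax derived from AR degradation.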

[1] = LNCaP and/or VCaP cells, 5 hours incubation, media with R1881, read-out: DC50 Code* (degradation of AR ELISA)
[2] = degradation of AR ELISA in LNCaP and/or VCaP cells, Table 2C, read-out: DC50 Code*

| Compound | DC50 [1] [nM] | DC50 [2] [nM] | further results |
| --- | --- | --- | --- |
| CC(=O)N(CC1CCN(c2cnc(C(=O)N[C@H]3CC[C@H](Oc4cc(C)c(C#N)c(C)c4)CC3)cn2)CC1)[C@H]1C[C@H](Oc2ccc3c(c2)C(=O)N(C2CCC(=O)NC2=O)C3=O)C1 (stereo partly drawn) [Compound 50, N-((1r,4r)-4-(4-cyano-3,5-dimethylphenoxy)cyclohexyl)-5-(4-((N-((1r,3r)-3-((2-(2,6-dioxopiperidin-3-yl)-1,3-dioxoisoindolin-5-yl)oxy)cyclobutyl)acetamido)methyl)piperidin-1-yl)pyrazine-2-carboxamide] | < 1 |  |  |
| CC(C)Oc1cc(N2CCN(CC3CCN(c4ncc(C(=O)N[C@H]5C(C)(C)[C@H](Oc6ccc(C#N)c(Cl)c6)C5(C)C)cn4)CC3)CC2)cc2c1C(=O)N(C1CCC(=O)NC1=O)C2=O (stereo partly drawn) [compound 103, N-((1r,3r)-3-(3-chloro-4-cyanophenoxy)-2,2,4,4-tetramethylcyclobutyl)-2-(4-((4-(2-(2,6-dioxopiperidin-3-yl)-7-isopropoxy-1,3-dioxoisoindolin-5-yl)piperazin-1-yl)methyl)piperidin-1-yl)pyrimidine-5-carboxamide] |  | < 1 |  |
| COc1cc(O[C@H]2C(C)(C)[C@H](NC(=O)c3cnc(N4CCC(CN(CCN5CCOCC5)[C@H]5C[C@H](Oc6ccc7c(c6)C(=O)N(C6CCC(=O)NC6=O)C7=O)C5)CC4)cn3)C2(C)C)ccc1C#N (stereo partly drawn) [compound 209, N-((1r,3r)-3-(4-cyano-3-methoxyphenoxy)-2,2,4,4-tetramethylcyclobutyl)-5-(4-((((1r,3r)-3-((2-(2,6-dioxopiperidin-3-yl)-1,3-dioxoisoindolin-5-yl)oxy)cyclobutyl)(2-morpholinoethyl)amino)methyl)piperidin-1-yl)pyrazine-2-carboxamide] |  | < 1 |  |
| CC(C)N(CC1CCN(c2ncc(C(=O)N[C@H]3C(C)(C)[C@H](Oc4ccc(C#N)c(C#N)c4)C3(C)C)cn2)CC1)[C@H]1C[C@H](Oc2ccc3c(c2)C(=O)N(C2CCC(=O)NC2=O)C3=O)C1 (stereo partly drawn) [compound 108, N-((1r,3r)-3-(3,4-dicyanophenoxy)-2,2,4,4-tetramethylcyclobutyl)-2-(4-((((1r,3r)-3-((2-(2,6-dioxopiperidin-3-yl)-1,3-dioxoisoindolin-5-yl)oxy)cyclobutyl) (isopropyl)amino)methyl)piperidin-1-yl)pyrimidine-5-carboxamide] |  | < 1 |  |
| COc1cc(O[C@H]2C[C@H](N(CC3CCN(c4ncc(C(=O)N[C@H]5CC[C@H](Oc6cc(C)c(C#N)c(C)c6)C5)cn4)CC3)C(C)C)C2)cc2c1C(=O)N(C1CCC(=O)NC1=O)C2=O (stereo partly drawn) [Compound 5, N-((1S,3S)-3-(4-cyano-3,5-dimethylphenoxy)cyclopentyl)-2-(4-((((1r,3S)-3-((2-(2,6-dioxopiperidin-3-yl)-7-methoxy-1,3-dioxoisoindolin-5-yl)oxy)cyclobutyl) (isopropyl)amino)methyl)piperidin-1-yl)pyrimidine-5-carboxamide] | > 100 |  |  |
| COCCN(CC1CCN(c2cnc(C(=O)N[C@H]3C(C)(C)[C@H](Oc4ccc(C#N)c(Cl)c4)C3(C)C)cn2)CC1)[C@H]1C[C@H](Oc2ccc3c(c2)C(=O)N(C2CCC(=O)NC2=O)C3=O)C1 (stereo partly drawn) [compound 239, N-((1r,3r)-3-(3-chloro-4-cyanophenoxy)-2,2,4,4-tetramethylcyclobutyl)-5-(4-((((1r,3r)-3-((2-(2,6-dioxopiperidin-3-yl)-1,3-dioxoisoindolin-5-yl)oxy)cyclobutyl)(2-methoxyethyl)amino)methyl)piperidin-1-yl)pyrazine-2-carboxamide] |  |  | DC50 (degradation of AR ELISA in LNCaP and/or VCaP cells, read-out: DC50 Code*): 1 to 10 nM |

Further lines, with some results ahead:

| DC50 [1] [nM] | DC50 [2] [nM] | Compound | further results |
| --- | --- | --- | --- |
| > 100 |  | COc1cc(O[C@H]2C[C@H](N(CC3CCN(c4ncc(C(=O)N[C@@H]5CC[C@@H](Oc6cc(C)c(C#N)c(C)c6)C5)cn4)CC3)C(C)C)C2)cc2c1C(=O)N(C1CCC(=O)NC1=O)C2=O (stereo partly drawn) [Compound 8, N-((1R,3R)-3-(4-cyano-3,5-dimethylphenoxy)cyclopentyl)-2-(4-((((1r,3R)-3-((2-(2,6-dioxopiperidin-3-yl)-7-methoxy-1,3-dioxoisoindolin-5-yl)oxy)cyclobutyl) (isopropyl)amino)methyl)piperidin-1-yl)pyrimidine-5-carboxamide] |  |
| < 1 |  | CCN(CC1CCN(c2cnc(C(=O)N[C@H]3CC[C@H](Oc4ccc(C#N)c(OC)c4)CC3)cn2)CC1)[C@H]1C[C@H](Oc2ccc3c(c2)C(=O)N(C2CCC(=O)NC2=O)C3=O)C1 (stereo partly drawn) [Compound 33, N-((1r,4r)-4-(4-cyano-3-methoxyphenoxy)cyclohexyl)-5-(4-((((1r,3r)-3-((2-(2,6-dioxopiperidin-3-yl)-1,3-dioxoisoindolin-5-yl)oxy)cyclobutyl)(ethyl)amino)methyl)piperidin-1-yl)pyrazine-2-carboxamide] |  |
|  | < 1 | COCCN(CC1CC2(C1)CN(c1ccc(C(=O)N[C@H]3C(C)(C)[C@H](Oc4ccc(C#N)c(OC)c4)C3(C)C)cc1)C2)[C@H]1C[C@H](Oc2ccc3c(c2)C(=O)N(C2CCC(=O)NC2=O)C3=O)C1 (mixture of isomers) [compound 190, rac-N-((1r,3r)-3-(4-cyano-3-methoxyphenoxy)-2,2,4,4-tetramethylcyclobutyl)-4-(6-((((1r,3r)-3-((2-(2,6-dioxopiperidin-3-yl)-1,3-dioxoisoindolin-5-yl)oxy)cyclobutyl)(2-methoxyethyl)amino)methyl)-2-azaspiro[3.3]heptan-2-yl)benzamide] |  |
|  | < 1 | COCCOCCOCCN(CC1CCN(c2ncc(C(=O)N[C@H]3C(C)(C)[C@H](Oc4cc(C)c(C#N)c(C)c4)C3(C)C)cn2)CC1)[C@H]1C[C@H](Oc2ccc3c(c2)C(=O)N(C2CCC(=O)NC2=O)C3=O)C1 (stereo partly drawn) [compound 144, N-((1r,3r)-3-(4-cyano-3,5-dimethylphenoxy)-2,2,4,4-tetramethylcyclobutyl)-2-(4-(2-((1r,3r)-3-((2-(2,6-dioxopiperidin-3-yl)-1,3-dioxoisoindolin-5-yl)oxy)cyclobutyl)-5,8,11-trioxa-2-azadodecyl)piperidin-1-yl)pyrimidine-5-carboxamide] |  |
|  | < 1 | Cc1cc(O[C@H]2C(C)(C)[C@H](NC(=O)c3ccc(N4CCC(N(C)[C@H]5C[C@H](Oc6ccc7c(c6)C(=O)N(C6CCC(=O)NC6=O)C7=O)C5)CC4)cc3)C2(C)C)cc(C)c1C#N (mixture of isomers) [compound 157, rac-N-((1r,3r)-3-(4-cyano-3,5-dimethylphenoxy)-2,2,4,4-tetramethylcyclobutyl)-4-(4-(((1r,3r)-3-((2-(2,6-dioxopiperidin-3-yl)-1,3-dioxoisoindolin-5-yl)oxy)cyclobutyl) (methyl)amino)piperidin-1-yl)benzamide] |  |
| > 100 |  | COc1cc(O[C@H]2C[C@H](N(CC3CCN(c4ncc(C(=O)NC5CC6(C5)CN(Cc5cc(C)c(C#N)c(C)c5)C6)cn4)CC3)C(C)C)C2)cc2c1C(=O)N(C1CCC(=O)NC1=O)C2=O (mixture of isomers) [Compound 12, rac-N-(2-(4-cyano-3,5-dimethylbenzyl)-2-azaspiro[3.3]heptan-6-yl)-2-(4-((((1r,3r)-3-((2-(2,6-dioxopiperidin-3-yl)-7-methoxy-1,3-dioxoisoindolin-5-yl)oxy)cyclobutyl) (isopropyl)amino)methyl)piperidin-1-yl)pyrimidine-5-carboxamide] |  |
